Test system: HORSS: barley, including spring and winter (Hordeum vulgare)
Experiment: Post-emergent Test III, herbicidal activity in wheat and barley
Assay type: in vivo
Settings: Hordeum vulgare, post-emergence, 504 h; 35 g ai/ha; 21 days after application; read-out: Visual Gorowth Reduction (%) 21 days After Application HORSS
Outline: (§1)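 Plants at the second to third true-leaf stage, grown in a greenhouse at about 18/17 °C with a 14 h photoperiod, were sprayed post-emergence at 187 L/ha with the high rate and ½× to 1/16× serial dilutions in an acetone/DMSO/crop-oil/surfactant carrier. Injury was rated visually at 21 d on a 0–100% scale, and GR20–GR90 were derived by probit analysis.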

SMILES	pest or weed control at 35 g/ha [%]
COc1c(N)nc(-c2ccc(Br)c(F)c2F)nc1C(=O)O [Compound 8]	60 to 74

Same assay, conditions: Hordeum vulgare, post-emergence, 504 h; 70 g ai/ha; 21 days after application; read-out: Visual Gorowth Reduction (%) 21 days After Application HORSS

SMILES	pest or weed control at 70 g/ha [%]
COc1c(N)nc(-c2ccc(Br)c(F)c2F)nc1C(=O)O [Compound 8]	75 to 84

Same assay, conditions: probit analysis; dose for 20 percent growth reduction (crop); 21 days after application

SMILES	GR20 HORSS [g ai/ha]
COc1c(N)nc(-c2ccc(Br)c(F)c2F)nc1C(=O)O [Compound 8]	1

Test system: KCHSC: kochia (Kochia scoparia)
Experiment: as above
Assay type: in vivo
Settings: Bassia scoparia, post-emergence, 504 h; 35 g ai/ha; 21 days after application; read-out: Visual Gorowth Reduction (%) 21 days After Application KCHSC
Outline: as §1

SMILES	pest or weed control at 35 g/ha [%]
COc1c(N)nc(-c2ccc(Br)c(F)c2F)nc1C(=O)O [Compound 8]	95 to 100

Same assay, conditions: Bassia scoparia, post-emergence, 504 h; 70 g ai/ha; 21 days after application; read-out: Visual Gorowth Reduction (%) 21 days After Application KCHSC

SMILES	pest or weed control at 70 g/ha [%]
COc1c(N)nc(-c2ccc(Br)c(F)c2F)nc1C(=O)O [Compound 8]	95 to 100

Same assay, conditions: probit analysis; dose for 50 percent growth reduction; 21 days after application

SMILES	GR50 KCHSC [g ai/ha]
COc1c(N)nc(-c2ccc(Br)c(F)c2F)nc1C(=O)O [Compound 8]	3

Same assay, conditions: probit analysis; dose for 80 percent growth reduction; 21 days after application

SMILES	GR80 KCHSC [g ai/ha]
COc1c(N)nc(-c2ccc(Br)c(F)c2F)nc1C(=O)O [Compound 8]	6

Test system: MATSS: scented mayweed (Matricaria chamomilla), pineappleweed (Matricaria matricarioides)
Experiment: as above
Assay type: in vivo
Settings: Matricaria chamomilla, post-emergence, 504 h; 35 g ai/ha; 21 days after application; read-out: Visual Gorowth Reduction (%) 21 days After Application MATSS
Outline: as §1

SMILES	pest or weed control at 35 g/ha [%]
COc1c(N)nc(-c2ccc(Br)c(F)c2F)nc1C(=O)O [Compound 8]	60 to 74

Same assay, conditions: Matricaria chamomilla, post-emergence, 504 h; 70 g ai/ha; 21 days after application; read-out: Visual Gorowth Reduction (%) 21 days After Application MATSS

SMILES	pest or weed control at 70 g/ha [%]
COc1c(N)nc(-c2ccc(Br)c(F)c2F)nc1C(=O)O [Compound 8]	75 to 84

Same assay, conditions: probit analysis; dose for 50 percent growth reduction; 21 days after application

SMILES	GR50 MATSS [g ai/ha]
COc1c(N)nc(-c2ccc(Br)c(F)c2F)nc1C(=O)O [Compound 8]	26

Same assay, conditions: probit analysis; dose for 80 percent growth reduction; 21 days after application

SMILES	GR80 MATSS [g ai/ha]
COc1c(N)nc(-c2ccc(Br)c(F)c2F)nc1C(=O)O [Compound 8]	73

Test system: SASKR: Russian thistle (Salsola iberica)
Experiment: as above
Assay type: in vivo
Settings: Salsola tragus, post-emergence, 504 h; 35 g ai/ha; 21 days after application; read-out: Visual Gorowth Reduction (%) 21 days After Application SASKR
Outline: as §1

SMILES	pest or weed control at 35 g/ha [%]
COc1c(N)nc(-c2ccc(Br)c(F)c2F)nc1C(=O)O [Compound 8]	85 to 94

Same assay, conditions: Salsola tragus, post-emergence, 504 h; 70 g ai/ha; 21 days after application; read-out: Visual Gorowth Reduction (%) 21 days After Application SASKR

SMILES	pest or weed control at 70 g/ha [%]
COc1c(N)nc(-c2ccc(Br)c(F)c2F)nc1C(=O)O [Compound 8]	85 to 94

Same assay, conditions: probit analysis; dose for 50 percent growth reduction; 21 days after application

SMILES	GR50 SASKR [g ai/ha]
COc1c(N)nc(-c2ccc(Br)c(F)c2F)nc1C(=O)O [Compound 8]	1

Same assay, conditions: probit analysis; dose for 80 percent growth reduction; 21 days after application

SMILES	GR80 SASKR [g ai/ha]
COc1c(N)nc(-c2ccc(Br)c(F)c2F)nc1C(=O)O [Compound 8]	16

Test system: TRZSS: wheat, including spring and winter (Triticum aestivum)
Experiment: as above
Assay type: in vivo
Settings: Triticum aestivum, post-emergence, 504 h; 35 g ai/ha; 21 days after application; read-out: Visual Gorowth Reduction (%) 21 days After Application TRZSS
Outline: as §1

SMILES	pest or weed control at 35 g/ha [%]
COc1c(N)nc(-c2ccc(Br)c(F)c2F)nc1C(=O)O [Compound 8]	75 to 84

Same assay, conditions: Triticum aestivum, post-emergence, 504 h; 70 g ai/ha; 21 days after application; read-out: Visual Gorowth Reduction (%) 21 days After Application TRZSS

SMILES	pest or weed control at 70 g/ha [%]
COc1c(N)nc(-c2ccc(Br)c(F)c2F)nc1C(=O)O [Compound 8]	85 to 94

Same assay, conditions: probit analysis; dose for 20 percent growth reduction (crop); 21 days after application

SMILES	GR20 TRZSS [g ai/ha]
COc1c(N)nc(-c2ccc(Br)c(F)c2F)nc1C(=O)O [Compound 8]	1

Test system: VERPE: bird's-eye speedwell (veronica persica)
Experiment: as above
Assay type: in vivo
Settings: Veronica persica, post-emergence, 504 h; 35 g ai/ha; 21 days after application; read-out: Visual Gorowth Reduction (%) 21 days After Application VERPE
Outline: as §1

SMILES	pest or weed control at 35 g/ha [%]
COc1c(N)nc(-c2ccc(Br)c(F)c2F)nc1C(=O)O [Compound 8]	95 to 100

Same assay, conditions: Veronica persica, post-emergence, 504 h; 70 g ai/ha; 21 days after application; read-out: Visual Gorowth Reduction (%) 21 days After Application VERPE

SMILES	pest or weed control at 70 g/ha [%]
COc1c(N)nc(-c2ccc(Br)c(F)c2F)nc1C(=O)O [Compound 8]	95 to 100

Same assay, conditions: probit analysis; dose for 50 percent growth reduction; 21 days after application

SMILES	GR50 VERPE [g ai/ha]
COc1c(N)nc(-c2ccc(Br)c(F)c2F)nc1C(=O)O [Compound 8]	1

Same assay, conditions: probit analysis; dose for 80 percent growth reduction; 21 days after application

SMILES	GR80 VERPE [g ai/ha]
COc1c(N)nc(-c2ccc(Br)c(F)c2F)nc1C(=O)O [Compound 8]	1

Test system: VIOSS: wild pansy (Viola tricolor), field violet (Viola arvensis)
Experiment: as above
Assay type: in vivo
Settings: Viola tricolor, post-emergence, 504 h; 35 g ai/ha; 21 days after application; read-out: Visual Gorowth Reduction (%) 21 days After Application VIOSS
Outline: as §1

SMILES	pest or weed control at 35 g/ha [%]
COc1c(N)nc(-c2ccc(Br)c(F)c2F)nc1C(=O)O [Compound 8]	85 to 94

Same assay, conditions: Viola tricolor, post-emergence, 504 h; 70 g ai/ha; 21 days after application; read-out: Visual Gorowth Reduction (%) 21 days After Application VIOSS

SMILES	pest or weed control at 70 g/ha [%]
COc1c(N)nc(-c2ccc(Br)c(F)c2F)nc1C(=O)O [Compound 8]	85 to 94

Same assay, conditions: probit analysis; dose for 50 percent growth reduction; 21 days after application

SMILES	GR50 VIOSS [g ai/ha]
COc1c(N)nc(-c2ccc(Br)c(F)c2F)nc1C(=O)O [Compound 8]	13

Same assay, conditions: probit analysis; dose for 80 percent growth reduction; 21 days after application

SMILES	GR80 VIOSS [g ai/ha]
COc1c(N)nc(-c2ccc(Br)c(F)c2F)nc1C(=O)O [Compound 8]	28

— US9113629B2, “4-amino-6-(4-substituted-phenyl)-picolinates and 6-amino-2-(4-substituted-phenyl)-pyrimidine-4-carboxylates and their use as herbicides” (DOW AGROSCIENCES LLC, priority 2013, dated 2015)
